In ChEMBL document CHEMBL6078684, “Discovery of a Novel Non-invasive AR PROTAC Degrader for the Topical Treatment of Androgenetic Alopecia” (J Med Chem, 2024):
The source made the active and inactive calls. No cut-off for these calls is given here.

Assays:
[1] = Ratio of drug concentration in male ICR mouse skin to liver at 4 mg/ml, TOP measured after 1 hrs by LC-MS/MS analysis; type: ADME, tissue-based; details: in vivo, topical_or_ocular
[2] = Ratio of drug concentration in male ICR mouse skin to kidney at 4 mg/ml, TOP measured after 12 hrs by LC-MS/MS analysis; type: ADME, tissue-based; details: in vivo, topical_or_ocular
[3] = molecular target: T1, Protein cereblon/Androgen receptor (Homo sapiens, UniProt P10275+Q96SW2); assay: PROTAC activity at CRBN/AR in human dermal papilla cells assessed as induction of AR degradation at 500 nM in presence of warhead of compound by Western blot analysis; type: cell-based; details: Human dermal papilla cell
Target sequence in this assay (P10275 whole entry, looked up): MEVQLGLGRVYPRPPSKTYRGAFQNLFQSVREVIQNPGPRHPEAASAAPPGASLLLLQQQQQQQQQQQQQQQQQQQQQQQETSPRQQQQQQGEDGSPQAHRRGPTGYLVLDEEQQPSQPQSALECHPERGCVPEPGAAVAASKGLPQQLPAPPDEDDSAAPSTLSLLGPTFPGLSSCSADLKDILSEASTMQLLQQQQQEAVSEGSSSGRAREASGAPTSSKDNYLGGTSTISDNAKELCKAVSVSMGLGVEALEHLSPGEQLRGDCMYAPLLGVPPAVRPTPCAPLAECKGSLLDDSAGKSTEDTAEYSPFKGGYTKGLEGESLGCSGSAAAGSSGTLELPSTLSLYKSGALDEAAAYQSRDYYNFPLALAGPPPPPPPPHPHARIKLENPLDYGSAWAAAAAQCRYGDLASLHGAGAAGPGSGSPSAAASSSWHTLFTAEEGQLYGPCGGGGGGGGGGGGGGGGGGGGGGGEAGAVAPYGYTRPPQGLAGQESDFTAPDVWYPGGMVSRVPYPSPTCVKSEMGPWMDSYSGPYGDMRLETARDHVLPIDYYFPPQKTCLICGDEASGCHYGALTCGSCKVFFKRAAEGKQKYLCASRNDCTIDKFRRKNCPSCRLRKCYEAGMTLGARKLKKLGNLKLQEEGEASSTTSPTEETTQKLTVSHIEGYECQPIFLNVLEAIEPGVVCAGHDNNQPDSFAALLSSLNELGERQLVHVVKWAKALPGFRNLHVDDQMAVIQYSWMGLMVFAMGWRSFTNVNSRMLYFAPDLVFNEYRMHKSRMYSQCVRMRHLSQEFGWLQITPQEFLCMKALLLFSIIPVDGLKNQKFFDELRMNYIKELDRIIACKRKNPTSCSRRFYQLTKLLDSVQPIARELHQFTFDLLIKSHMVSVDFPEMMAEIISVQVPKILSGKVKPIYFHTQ
Target sequence in this assay (Q96SW2 whole entry, looked up): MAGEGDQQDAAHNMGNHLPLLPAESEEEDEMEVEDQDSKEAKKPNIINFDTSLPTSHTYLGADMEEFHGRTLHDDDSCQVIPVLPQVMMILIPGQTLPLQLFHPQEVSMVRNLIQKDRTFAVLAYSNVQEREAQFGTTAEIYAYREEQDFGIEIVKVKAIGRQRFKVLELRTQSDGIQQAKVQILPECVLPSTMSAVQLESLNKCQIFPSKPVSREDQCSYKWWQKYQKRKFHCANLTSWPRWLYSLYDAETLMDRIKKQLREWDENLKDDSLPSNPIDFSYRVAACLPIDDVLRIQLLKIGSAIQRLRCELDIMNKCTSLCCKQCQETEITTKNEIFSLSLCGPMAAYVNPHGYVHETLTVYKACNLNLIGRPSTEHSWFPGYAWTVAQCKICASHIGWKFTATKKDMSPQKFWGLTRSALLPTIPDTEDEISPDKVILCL

[4] = Ratio of drug concentration in male ICR mouse skin to spleen at 4 mg/ml, TOP measured after 2 hrs by LC-MS/MS analysis; type: ADME, tissue-based; details: in vivo, topical_or_ocular
[5] = molecular target: T1, Protein cereblon/Androgen receptor; assay: PROTAC activity at CRBN/AR in human dermal papilla cells assessed as decrease in AR protein level at 1 uM preincubated with testosterone for 24 hrs followed by compound addition and measured after 48 hrs by Western blot analysis; type: cell-based; details: Human dermal papilla cell
Target sequence in this assay (P10275 whole entry, looked up): as the sequence (P10275 whole entry, looked up) above
Target sequence in this assay (Q96SW2 whole entry, looked up): as the sequence (Q96SW2 whole entry, looked up) above

Mus musculus [6] = assay: Hair regeneration efficacy in testosterone induced male C57BL/6 mouse androgenetic alopecia model assessed as well formed stratum corneum in hair at 0.4 %, TOP administered once daily for 14 days with co-administration of 0.2% testosterone and measured after 28 days by SEM analysis; type: functional, organism-based; details: time 28.0 day
Mus musculus [7] = assay: Hair regeneration efficacy in testosterone induced male C57BL/6 mouse androgenetic alopecia model assessed as increase in hair density at 0.4 %, TOP administered once daily for 14 days with co-administration of 0.2% testosterone and measured after 28 days by trichoscope photographic analysis; type: functional, organism-based; details: time 28.0 day
[8] = molecular target: T2, Protein cereblon/Androgen receptor (Mus musculus) (UniProt P19091+Q8C7D2); assay: In vivo PROTAC activity at CRBN/AR in testosterone induced male C57BL/6 mouse androgenetic alopecia model assessed as decrease in AR protein level in skin at 0.4 % TOP administered once daily for 14 days with co-administration of 0.2% testosterone for 28 days by Western blot analysis relative to control; type: functional, organism-based; parameters: scale not given: the % may be the effect or the level left; details: time 14.0 day
T2 sequence (P19091 whole entry, looked up): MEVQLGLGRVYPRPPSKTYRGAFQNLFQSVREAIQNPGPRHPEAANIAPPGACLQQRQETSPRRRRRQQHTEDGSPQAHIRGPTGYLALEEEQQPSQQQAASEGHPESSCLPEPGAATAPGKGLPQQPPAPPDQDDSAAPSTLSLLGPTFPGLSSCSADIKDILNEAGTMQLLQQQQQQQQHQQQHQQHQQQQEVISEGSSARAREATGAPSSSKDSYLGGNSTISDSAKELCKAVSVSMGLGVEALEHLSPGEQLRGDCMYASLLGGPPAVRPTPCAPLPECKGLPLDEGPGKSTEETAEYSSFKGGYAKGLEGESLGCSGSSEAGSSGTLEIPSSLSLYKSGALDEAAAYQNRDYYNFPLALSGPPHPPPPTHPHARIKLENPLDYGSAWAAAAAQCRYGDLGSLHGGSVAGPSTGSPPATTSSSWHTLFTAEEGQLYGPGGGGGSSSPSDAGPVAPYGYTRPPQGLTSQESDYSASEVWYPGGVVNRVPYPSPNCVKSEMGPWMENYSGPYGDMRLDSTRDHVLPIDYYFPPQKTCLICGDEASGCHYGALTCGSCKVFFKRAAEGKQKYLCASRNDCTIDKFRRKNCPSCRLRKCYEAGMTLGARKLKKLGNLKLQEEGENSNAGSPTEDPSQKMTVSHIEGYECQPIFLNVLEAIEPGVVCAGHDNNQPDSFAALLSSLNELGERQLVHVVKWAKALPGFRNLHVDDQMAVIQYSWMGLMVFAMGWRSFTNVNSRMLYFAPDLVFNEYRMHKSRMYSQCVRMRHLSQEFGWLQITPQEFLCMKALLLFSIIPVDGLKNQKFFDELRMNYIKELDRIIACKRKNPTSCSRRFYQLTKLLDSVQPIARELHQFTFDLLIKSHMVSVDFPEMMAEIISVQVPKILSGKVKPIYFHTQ
T2 sequence (Q8C7D2 whole entry, looked up): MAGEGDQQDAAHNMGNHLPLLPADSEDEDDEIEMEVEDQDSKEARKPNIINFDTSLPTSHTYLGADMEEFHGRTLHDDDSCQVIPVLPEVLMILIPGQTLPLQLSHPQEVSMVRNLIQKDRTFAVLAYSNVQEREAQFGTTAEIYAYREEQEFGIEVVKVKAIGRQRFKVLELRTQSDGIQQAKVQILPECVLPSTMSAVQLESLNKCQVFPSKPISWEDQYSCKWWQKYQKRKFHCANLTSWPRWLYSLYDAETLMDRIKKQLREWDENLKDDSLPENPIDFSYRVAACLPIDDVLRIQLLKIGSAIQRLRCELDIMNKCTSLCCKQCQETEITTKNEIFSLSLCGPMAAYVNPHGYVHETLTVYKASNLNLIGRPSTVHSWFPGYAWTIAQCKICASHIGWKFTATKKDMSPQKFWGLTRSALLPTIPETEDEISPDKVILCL

[9] = Ratio of drug concentration in male ICR mouse skin to liver at 4 mg/ml, TOP measured after 8 hrs by LC-MS/MS analysis; type: ADME, tissue-based; details: in vivo, topical_or_ocular
[10] = molecular target: T1, Protein cereblon/Androgen receptor; assay: PROTAC activity at CRBN/AR in human dermal papilla cell assessed as induction of AR degradation at 500 nM measured after 24 hrs by Western blot analysis; type: cell-based
Target sequence in this assay (P10275 whole entry, looked up): as the sequence (P10275 whole entry, looked up) above
Target sequence in this assay (Q96SW2 whole entry, looked up): as the sequence (Q96SW2 whole entry, looked up) above

[11] = Ratio of drug concentration in male ICR mouse skin to lungs at 4 mg/ml, TOP measured after 4 hrs by LC-MS/MS analysis; type: ADME, tissue-based, Skin/Lung; details: in vivo, topical_or_ocular
[12] = Ratio of drug concentration in male ICR mouse skin to spleen at 4 mg/ml, TOP measured after 1 hrs by LC-MS/MS analysis; type: ADME, tissue-based; details: in vivo, topical_or_ocular
[13] = Ratio of drug concentration in male ICR mouse skin to lungs at 4 mg/ml, TOP measured after 1 hrs by LC-MS/MS analysis; type: ADME, tissue-based, Skin/Lung; details: in vivo, topical_or_ocular
[14] = molecular target: T1, Protein cereblon/Androgen receptor; assay: PROTAC activity at CRBN/AR in human dermal papilla cell assessed as induction of AR degradation measured after 24 to 72 hrs by Western blot analysis; type: cell-based
Target sequence in this assay (P10275 whole entry): as the sequence (P10275 whole entry, looked up) above
Target sequence in this assay (Q96SW2 whole entry): as the sequence (Q96SW2 whole entry, looked up) above

[15] = Ratio of drug concentration in male ICR mouse skin to heart at 4 mg/ml, TOP measured after 8 hrs by LC-MS/MS analysis; type: ADME, tissue-based; details: in vivo, topical_or_ocular
[16] = Ratio of drug concentration in male ICR mouse skin to kidney at 4 mg/ml, TOP measured after 1 hrs by LC-MS/MS analysis; type: ADME, tissue-based; details: in vivo, topical_or_ocular
[17] = Ratio of drug concentration in male ICR mouse skin to heart at 4 mg/ml, TOP measured after 12 hrs by LC-MS/MS analysis; type: ADME, tissue-based; details: in vivo, topical_or_ocular
[18] = Ratio of drug concentration in male ICR mouse skin to kidney at 4 mg/ml, TOP measured after 2 hrs by LC-MS/MS analysis; type: ADME, tissue-based; details: in vivo, topical_or_ocular
[19] = Ratio of drug concentration in male ICR mouse skin to kidney at 4 mg/ml, TOP measured after 0.25 hrs by LC-MS/MS analysis; type: ADME, tissue-based; details: in vivo, topical_or_ocular
[20] = Ratio of drug concentration in male ICR mouse skin to kidney at 4 mg/ml, TOP measured after 0.5 hrs by LC-MS/MS analysis; type: ADME, tissue-based; details: in vivo, topical_or_ocular
[21] = AUC (0 to t) in male ICR mouse skin at 4 mg/ml, TOP measured after 12 hrs by LC-MS/MS analysis; type: ADME, tissue-based, Skin of body; details: in vivo, topical_or_ocular
[22] = molecular target: T2, Protein cereblon/Androgen receptor (Mus musculus); assay: In vivo PROTAC activity at CRBN/AR in testosterone induced male C57BL/6 mouse androgenetic alopecia model assessed as increase in beta-catenin expression level in skin at 0.4 % TOP administered once daily for 14 days with co-administration of 0.2% testosterone for 28 days by DAPI staining based immunofluorescence analysis; type: functional, organism-based; details: time 14.0 day
Mus musculus [23] = assay: Hair regeneration efficacy in testosterone induced male C57BL/6 mouse androgenetic alopecia model assessed as generation of thick hair with intact scales at 0.4 %, TOP administered once daily for 14 days with co-administration of 0.2% testosterone and measured after 28 days by SEM analysis; type: functional, organism-based; details: time 28.0 day
[24] = Ratio of drug concentration in male ICR mouse skin to liver at 4 mg/ml, TOP measured after 0.5 hrs by LC-MS/MS analysis; type: ADME, tissue-based; details: in vivo, topical_or_ocular
Mus musculus [25] = assay: Hair regeneration efficacy in testosterone induced male C57BL/6 mouse androgenetic alopecia model assessed as entry of hair follicles to anagen phase by measuring high density of enlarged hair bulbs in subcutaneous tissue at 0.4 %, TOP administered once daily for 14 days with co-administration of 0.2% testosterone for 28 days by H and E staining based analysis; type: functional, organism-based; details: time 14.0 day
[26] = Ratio of drug concentration in male ICR mouse skin to lungs at 4 mg/ml, TOP measured after 8 hrs by LC-MS/MS analysis; type: ADME, tissue-based, Skin/Lung; details: in vivo, topical_or_ocular
Mus musculus [27] = assay: Hair regeneration efficacy in testosterone induced male C57BL/6 mouse androgenetic alopecia model assessed as increase in hair diameter at 0.1 %, TOP administered once daily for 14 days with co-administration of 0.2% testosterone and measured after 28 days by SEM analysis; type: functional, organism-based; details: time 28.0 day
[28] = Drug uptake in male ICR mouse spleen at 4 mg/ml, TOP measured after 12 hrs by LC-MS/MS analysis; type: ADME, tissue-based; details: in vivo, topical_or_ocular
[29] = molecular target: T1, Protein cereblon/Androgen receptor; assay: PROTAC activity at CRBN/AR in human dermal papilla cells assessed as induction of AR degradation at 500 nM in presence of pomalidomide by Western blot analysis; type: cell-based; details: Human dermal papilla cell
Target sequence in this assay (P10275 whole entry, looked up): as the sequence (P10275 whole entry, looked up) above
Target sequence in this assay (Q96SW2 whole entry, looked up): as the sequence (Q96SW2 whole entry, looked up) above

[30] = molecular target: T1, Protein cereblon/Androgen receptor; assay: PROTAC activity at CRBN/AR in human dermal papilla cells assessed as increase in beta-catenin protein level at 250 to 1000 nM preincubated with testosterone for 24 hrs followed by compound addition and measured after 48 hrs by Western blot analysis; type: cell-based; details: Human dermal papilla cell, dose 250-1000 nM
Target sequence in this assay (P10275 whole entry, looked up): as the sequence (P10275 whole entry, looked up) above
Target sequence in this assay (Q96SW2 whole entry, looked up): as the sequence (Q96SW2 whole entry, looked up) above

[31] = Ratio of drug concentration in male ICR mouse skin to lungs at 4 mg/ml, TOP measured after 12 hrs by LC-MS/MS analysis; type: ADME, tissue-based, Skin/Lung; details: in vivo, topical_or_ocular
[32] = molecular target: T2, Protein cereblon/Androgen receptor (Mus musculus); assay: In vivo PROTAC activity at CRBN/AR in testosterone induced male C57BL/6 mouse androgenetic alopecia model assessed as decrease in AR protein level in skin at 0.1 to 0.4 % TOP administered once daily for 14 days with co-administration of 0.2% testosterone for 28 days by Western blot analysis; type: functional, organism-based; details: dose 0.1-0.4 %, time 14.0 day
[33] = Ratio of drug concentration in male ICR mouse skin to liver at 4 mg/ml, TOP measured after 4 hrs by LC-MS/MS analysis; type: ADME, tissue-based; details: in vivo, topical_or_ocular
Mus musculus [34] = assay: Hair regeneration efficacy in testosterone induced male C57BL/6 mouse androgenetic alopecia model at 0.4 %, TOP administered once daily for 14 days and measured after 21 days with co-administration of 0.2% testosterone for 28 days relative to minoxidil by photographic analysis; type: functional; details: time 14 day

With `N#Cc1ccc(O[C@H]2CC[C@H](NC(=O)c3ccc(C4CCN(CC5CCCN(c6ccc(C(=O)NC7CCC(=O)NC7=O)cc6)C5)CC4)cc3)CC2)cc1Cl` (some centres undefined) the Ratio [1] was 485.29, the Ratio [2] was 101.26 and the Activity [3] was “inactive”. The Ratio [4] was 450.95, the Activity [5] was “Active; Most Pronounced Degradation Observed” and the Activity (Mus musculus [6]) was “Active”. For the same molecule, the Activity (Mus musculus [7]) was “Active”, the Activity [8] was over 50% and the Ratio [9] was 196.27. For the same molecule, the Activity [10] was “Active; Maximum Degradation Level Observed”, the Ratio [11] was 238.43 and the Ratio [12] was 472.95. It also gave a Ratio [13] of 476.62, a DC50 [14] of 200 nM and a Ratio [15] of 754.91. It also gave a Ratio [16] of 467.24, a Ratio [17] of 274.38 and a Ratio [18] of 410.02. It also gave a Ratio [19] of 484.4, a Ratio [20] of 190.39 and an AUCt [21] of 651924.91 ng·h/g. For the same molecule, the Activity [22] was “Active”, the Activity (Mus musculus [23]) was “Active” and the Ratio [24] was 465.04. For the same molecule, the Activity (Mus musculus [25]) was “Active”, the Ratio [26] was 800.46 and the Activity (Mus musculus [27]) was “Active”. The Drug uptake [28] was “Active”, the Activity [29] was “inactive” and the Activity [30] was “Active”. The Ratio [31] was 288.26, the Activity [32] was “Active” and the Ratio [33] was 629.99. The Activity (Mus musculus [34]) was 100%.
